Assay results taken from patent US9512396B2, “In vitro microphysiological system for high throughput 3D tissue organization and biological function” (The Trustees of the University of Pennsylvania, priority 2011, dated 2016).
Read-outs that look alike come from different tables or passages of the source.

System: cardiac microtissues (CMTs)
Format: cell-based
Conditions: measured after 1 h
Protocol: In a first example, cardiomyocytes were isolated from 0-1 day neonatal Sprague Dawley rat pups by a Trypsin digestion protocol as previously described. The resulting cell population was immediately subjected to CMT generation. CMTs were cultured in high glucose DMEM (Mediatech, Inc.) containing 10% horse serum (Invitrogen), 2% chick embryo extract (Charles River Laboratories International, Inc.), 4 mM L-glutamine, 1 mM sodium pyruvate, 100 units/mL penicillin, and […] streptomycin (all from Invitrogen). Cell culture medium was changed every day. Stock solution of Isoproterenol (Sigma-Aldrich) of 10 mM was made in MilliQ water and stock solution of Digoxin (GlaxoSmithKline) of 10 mM was made in DMSO. Calcium staining was obtained by incubating CMTs for 1 h with the acetoxymethyl ester of fluo-3 (fluo-3/(AM), Invitrogen) as a fluorescent dye at 2 μM in PBS with 0.02% of Pluronic F127 (BASF).
Before cell seeding, the PDMS templates were sterilized in 70% ethanol followed by UV irradiation for 15 min and treated with 0.2% Pluronic F127 for 60 min to reduce cell adhesion. A reconstitution mixture, consisting of 1 mg/mL or 2.5 mg/mL liquid neutralized collagen I from rat tail (BO Biosciences) and 0.5 mg/mL fibrinogen from bovine plasma (Sigma-Aldrich), was then added to the surface of the substrates on ice and templates were degassed under vacuum to remove bubbles in the liquid. A cooled suspension of half a million cells within reconstitution mixture was then added to the substrate and the entire assembly was centrifuged to drive the cells into the micropatterned wells, resulting in around 500 cells per well. Excess collagen/fibrinogen and cells were removed by de-wetting the surface of the substrate before incubating at 37° C. to induce collagen polymerization. The appropriate media was then added to each substrate. By using a live/dead cell viability assay (Invitrogen), cell viability over time was estimated.
For quantifying microtissue forces, brightfield and fluorescence images were taken at 20 Hz within each template, using a Photometrics Evolve EMCCOcamera (Photometrics), and an A-Plan 10× objective on a Nikon Eclipse Ti (Nikon Instruments Inc.) equipped with a live cell incubator. Only tissues that were uniformly anchored to the tips of the cantilevers were included in the analysis. The displacement of fluorescent micro-beads at the top of the cantilevers was then tracked with using the SpotTracker plug-in in ImageJ (National Institutes of Health).
In one example, it was also examined whether CMTs responded appropriately to two cardiac compounds, isoproterenol and digoxin. To study the dose-response of the CMTs to these compounds, their concentrations were varied from 1 nM to 10 μM and the dynamic stress and the spontaneous frequency of CMTs were measured after 1 h (FIG. 13). Isoproterenol can be used as a β-adrenergic agonist with a positive chronotropic effect whereas digoxin is a cardiac glycoside that inhibits Na+/K+-ATPase (sodium pump), activates sarcoplasmic reticulum Ca2+-release channels and induces positive inotropic effects.

| SMILES | effect on dynamic stress and spontaneous frequency of CMTs (1 nM) | change of spontaneous frequency (1 μM) | change of spontaneous frequency (10 μM) | inotropic effect (contractility, dynamic stress) (1 and 10 nM (so in the source)) | chronotropic action (spontaneous frequency) (1 and 10 μM) | inotropic action (contractility, dynamic stress) (10 and 100 nM) | maximal stress increase (1 μM) | chronotropic effect (spontaneous frequency) (10 μM) | inotropic effect (dynamic stress) (10 μM) | spontaneous frequency (10 μM) | inotropic response (dynamic stress) (between 1 nM and 1 μM) |
| --- | --- | --- | --- | --- | --- | --- | --- | --- | --- | --- | --- |
| CC(C)NCC(O)c1ccc(O)c(O)c1 (centres unmarked) [Isoproterenol] | no observable effect | doubling | tripling | slight negative inotropic effect | positive chronotropic action | slight positive inotropic action | – | – | – | – | – |
| C[C@H]1O[C@@H](O[C@H]2[C@@H](O)C[C@H](O[C@H]3[C@@H](O)C[C@H](O[C@H]4CC[C@@]5(C)[C@H](CC[C@@H]6[C@@H]5C[C@@H](O)[C@]5(C)[C@@H](C7=CC(=O)OC7)CC[C@]65O)C4)O[C@@H]3C)O[C@@H]2C)C[C@H](O)[C@@H]1O [Digoxin] | – | – | – | – | – | – | 22±4% | strong negative chronotropic effect | almost no inotropic effect | under 0.04±0.01 Hz | positive inotropic response |
